Active and inactive are the calls of the source. The rule behind the calls is not given here.

Data set [1] concerns GL26. Put plainly: Inhibition of HDAC in mouse GL26 cells assessed as increase in histone H3 acetylation at 0.62 to 1.25 uM incubated for 48 hrs by Western blot analysis. In kind it is cell-based. The following applies: dose 0.62-1.25 µM, DDE = dose-dependent effect. (In general: A western blot detects proteins with antibodies after separation by electrophoresis.)
Data set [2] concerns GL26. In words: Induction of apoptosis in mouse GL26 cells assessed as proteolytic cleavage of PARP1 incubated for 48 hrs by Western blot analysis. Type of data set: functional, cell-based. The conditions noted are these: dose 1.25-5 µM, DDE = dose-dependent effect.
Data set [3] can be described thus: Toxicity in mouse bearing intracranial tumor assessed as median survival time at 50 mg/kg, ip for 10 days (Rvb= 13.8 days). In kind it is organism-based. The following applies: in vivo, 240 h, time 10 day.
The test system of a further data set is Mus musculus. In words: In vivo inhibition of MAO-A in mouse xenografted with mouse GL26 assessed as decrease in MAO activity in brain at 25 mg/kg, ip administered for 10 days by bioluminescence assay. The following applies: time 10.0 day. Type of data set: functional, organism-based.
The subject of data set [4] is GL26. In words: Inhibition of HDAC in mouse GL26 cells assessed as increase in alpha tubulin level at 0.62 to 1.25 uM incubated for 48 hrs by Western blot analysis. In kind it is cell-based. The following applies: dose 0.62-1.25 µM, DDE = dose-dependent effect.
Data set [5] deals with T1, Protein deacetylase HDAC6 (Homo sapiens, UniProt Q9UBN7).
T1 sequence (Q9UBN7 whole entry): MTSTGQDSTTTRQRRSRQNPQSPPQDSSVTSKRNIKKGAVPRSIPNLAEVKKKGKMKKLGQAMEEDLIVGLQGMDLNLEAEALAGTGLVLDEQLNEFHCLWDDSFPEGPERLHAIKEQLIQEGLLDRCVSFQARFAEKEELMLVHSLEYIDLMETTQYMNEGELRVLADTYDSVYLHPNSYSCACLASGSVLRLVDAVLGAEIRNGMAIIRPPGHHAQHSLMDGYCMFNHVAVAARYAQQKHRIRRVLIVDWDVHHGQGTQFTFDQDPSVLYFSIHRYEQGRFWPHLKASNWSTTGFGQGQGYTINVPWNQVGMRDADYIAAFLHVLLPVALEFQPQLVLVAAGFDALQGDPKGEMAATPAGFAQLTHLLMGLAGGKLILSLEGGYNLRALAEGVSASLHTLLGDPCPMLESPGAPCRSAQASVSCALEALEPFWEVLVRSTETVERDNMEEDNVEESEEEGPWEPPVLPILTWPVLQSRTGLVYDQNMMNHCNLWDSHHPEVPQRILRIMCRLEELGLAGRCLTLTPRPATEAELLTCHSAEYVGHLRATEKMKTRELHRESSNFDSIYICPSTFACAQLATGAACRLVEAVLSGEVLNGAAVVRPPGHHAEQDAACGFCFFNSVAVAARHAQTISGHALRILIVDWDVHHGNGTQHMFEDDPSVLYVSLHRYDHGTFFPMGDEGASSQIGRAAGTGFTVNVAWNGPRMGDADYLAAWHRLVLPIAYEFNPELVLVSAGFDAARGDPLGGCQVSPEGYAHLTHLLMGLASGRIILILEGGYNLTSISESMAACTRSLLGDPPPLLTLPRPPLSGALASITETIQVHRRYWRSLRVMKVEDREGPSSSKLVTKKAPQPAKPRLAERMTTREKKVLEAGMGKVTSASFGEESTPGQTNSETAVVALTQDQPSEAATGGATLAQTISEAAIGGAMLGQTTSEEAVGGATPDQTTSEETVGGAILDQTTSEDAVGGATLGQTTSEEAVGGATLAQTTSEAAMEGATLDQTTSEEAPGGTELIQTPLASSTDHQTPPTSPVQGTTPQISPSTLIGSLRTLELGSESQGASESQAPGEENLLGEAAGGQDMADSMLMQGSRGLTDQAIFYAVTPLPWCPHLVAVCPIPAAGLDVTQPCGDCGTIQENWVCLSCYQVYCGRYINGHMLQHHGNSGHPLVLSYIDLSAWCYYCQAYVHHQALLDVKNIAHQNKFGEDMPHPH
In words: Inhibition of human HDAC6 (379 to 382 residues) using RHKKAc fluorogenic peptide as substrate by fluorescence assay.

For a further data set, the target named is Histone deacetylase 1 (Homo sapiens, UniProt Q13547). Put plainly: Inhibition of human HDAC1 (379 to 382 residues) using RHKKAc-AMC fluorogenic peptide as substrate by fluorescence assay.
Histone deacetylase 1, sequence (Q13547 whole entry, the tested form may be a part): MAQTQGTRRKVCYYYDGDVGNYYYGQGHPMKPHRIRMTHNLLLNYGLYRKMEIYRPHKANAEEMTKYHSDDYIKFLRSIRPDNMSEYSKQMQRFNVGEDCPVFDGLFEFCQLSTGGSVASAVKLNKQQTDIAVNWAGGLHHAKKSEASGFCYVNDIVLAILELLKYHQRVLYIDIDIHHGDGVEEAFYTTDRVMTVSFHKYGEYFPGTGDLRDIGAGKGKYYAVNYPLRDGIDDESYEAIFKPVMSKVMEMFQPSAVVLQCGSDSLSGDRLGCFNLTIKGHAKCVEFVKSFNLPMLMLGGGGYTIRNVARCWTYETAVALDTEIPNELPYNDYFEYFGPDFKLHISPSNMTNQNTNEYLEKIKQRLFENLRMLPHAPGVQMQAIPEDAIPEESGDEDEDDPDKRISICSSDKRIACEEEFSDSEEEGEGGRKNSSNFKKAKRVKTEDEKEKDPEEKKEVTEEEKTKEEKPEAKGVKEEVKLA
Data set [6] in a line: Toxicity in mouse bearing intracranial tumor assessed as last day of survival at 25 mg/kg, ip treatment started at 7 dpi (Rvb=19 days). The conditions noted are these: in vivo, 456 h. In kind it is organism-based.
Data set [7] can be described thus: Toxicity in mouse bearing intracranial tumor assessed as last day of survival at 25 mg/kg,ip for 10 days (Rvb=16 days). Type of data set: organism-based. The conditions noted are these: in vivo, 240 h, time 10 day.
Data set [8] can be described thus: Toxicity in mouse bearing intracranial tumor assessed as median survival time at 25 mg/kg, ip for 10 days (Rvb= 13.8 days). In kind it is organism-based. The conditions noted are these: in vivo, 240 h, time 10 day.
Data set [9] deals with Lysine-specific histone demethylase 1A (Homo sapiens, UniProt O60341). In words: Inhibition of human LSD1 assessed as demethylase activity of LSD1 using Histone H3(1-21)K4me2 peptide as substrate incubated for 30 mins followed by substrate addition by amplex red dye based HRP-coupled assay.

For orientation: IC50 means the point on the concentration scale where inhibition reaches its midpoint. Consider `C#CCN(C)CCCOc1ccc(NC(=O)CCCCCCC(=O)NO)cc1Cl`, for which the Activity result in the data set with GL26 [1], with GL26 [2] and in the data set with GL26 [4] was “Dde” throughout. In addition, the Survival in data set [3] amounted to 14.4 days; in [6] it was 20 days. In addition, the result with Mus musculus was Active. Besides, the IC50 came out at 6 nM in data set [5] and 140 nM at Histone deacetylase 1.
One may read the EC50 as the midpoint of the concentration-response curve. Regarding `C#CCN(C)CCCOc1cc(NCc2ccc(/C=C/C(=O)NO)cc2)ccc1Cl`, the Survival in data set [7] is 21 days; in data set [8] it was 16.4 days; in data set [6], 22 days. In addition, the EC50 in data set [9] is 10000 nM. Moreover, the result in the data set on Mus musculus was Active. Further, the figures for the IC50 (in [5]; against Histone deacetylase 1) were 100 nM and 510 nM, respectively.

The values above are taken from ChEMBL document CHEMBL5154693, “N-Methylpropargylamine-Conjugated Hydroxamic Acids as Dual Inhibitors of Monoamine Oxidase A and Histone Deacetylase for Glioma Treatment” (J Med Chem, 2022).
